According to ChEMBL document CHEMBL4619804, “Target-Based Identification and Optimization of 5-Indazol-5-yl Pyridones as Toll-like Receptor 7 and 8 Antagonists Using a Biochemical TLR8 Antagonist Competition Assay” (J Med Chem, 2020):

Legend:
Toll-like receptor 4 = Toll-like receptor 4 (Homo sapiens, UniProt O00206); test: Antagonist activity at TLR4 in human PBMC assessed as inhibition of LPS-induced TNFalpha production preincubated for 30 mins followed by LPS addition and measured after 20 hrs by HTRF assay; assay type: cell-based
Toll-like receptor 7 = target: T1, Toll-like receptor 7 (Mus musculus, UniProt P58681); test: Antagonist activity at TLR7 in mouse whole blood assessed as inhibition of DOTAP-ssRNA40 induced IFNalpha production preincubated for 30 mins followed by ssRNA40 addition measured after 20 hrs by ELISA; assay type: tissue-based
T1 sequence (P58681 whole entry): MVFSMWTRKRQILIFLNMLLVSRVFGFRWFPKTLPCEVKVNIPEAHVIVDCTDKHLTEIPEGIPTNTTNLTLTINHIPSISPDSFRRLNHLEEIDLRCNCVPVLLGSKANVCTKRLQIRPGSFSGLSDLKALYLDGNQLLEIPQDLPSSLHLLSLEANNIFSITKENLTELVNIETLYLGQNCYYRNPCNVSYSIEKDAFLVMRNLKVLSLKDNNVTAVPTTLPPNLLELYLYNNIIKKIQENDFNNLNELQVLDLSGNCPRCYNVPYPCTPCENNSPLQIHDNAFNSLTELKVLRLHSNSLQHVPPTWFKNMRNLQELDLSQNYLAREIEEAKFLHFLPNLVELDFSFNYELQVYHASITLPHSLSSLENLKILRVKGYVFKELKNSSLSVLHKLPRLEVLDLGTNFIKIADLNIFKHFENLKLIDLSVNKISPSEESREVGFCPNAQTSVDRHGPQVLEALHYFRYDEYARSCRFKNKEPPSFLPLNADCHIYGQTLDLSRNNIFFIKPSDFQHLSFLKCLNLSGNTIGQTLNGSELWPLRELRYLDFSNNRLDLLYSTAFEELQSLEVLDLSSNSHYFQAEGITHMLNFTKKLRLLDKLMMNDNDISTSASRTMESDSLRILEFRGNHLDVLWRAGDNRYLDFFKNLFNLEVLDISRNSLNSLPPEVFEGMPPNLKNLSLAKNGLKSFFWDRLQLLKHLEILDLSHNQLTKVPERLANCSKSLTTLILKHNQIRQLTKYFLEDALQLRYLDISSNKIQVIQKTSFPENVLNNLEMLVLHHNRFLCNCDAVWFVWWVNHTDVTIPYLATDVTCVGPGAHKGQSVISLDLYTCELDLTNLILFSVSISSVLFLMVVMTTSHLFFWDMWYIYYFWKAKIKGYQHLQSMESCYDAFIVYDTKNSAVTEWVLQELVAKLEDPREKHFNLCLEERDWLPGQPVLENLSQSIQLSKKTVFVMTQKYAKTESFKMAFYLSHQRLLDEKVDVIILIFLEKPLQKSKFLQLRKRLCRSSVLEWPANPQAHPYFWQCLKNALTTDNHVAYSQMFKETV

Toll-like receptor 1 = target: T2, Toll-like receptor 1 (Homo sapiens, UniProt Q15399); test: Antagonist activity at TLR1 in human PBMC assessed as inhibition of Pam3CSK4-induced TNFalpha production preincubated for 30 mins followed by Pam3CSK4 addition and measured after 20 hrs by HTRF assay; assay type: cell-based
T2 sequence (Q15399 whole entry): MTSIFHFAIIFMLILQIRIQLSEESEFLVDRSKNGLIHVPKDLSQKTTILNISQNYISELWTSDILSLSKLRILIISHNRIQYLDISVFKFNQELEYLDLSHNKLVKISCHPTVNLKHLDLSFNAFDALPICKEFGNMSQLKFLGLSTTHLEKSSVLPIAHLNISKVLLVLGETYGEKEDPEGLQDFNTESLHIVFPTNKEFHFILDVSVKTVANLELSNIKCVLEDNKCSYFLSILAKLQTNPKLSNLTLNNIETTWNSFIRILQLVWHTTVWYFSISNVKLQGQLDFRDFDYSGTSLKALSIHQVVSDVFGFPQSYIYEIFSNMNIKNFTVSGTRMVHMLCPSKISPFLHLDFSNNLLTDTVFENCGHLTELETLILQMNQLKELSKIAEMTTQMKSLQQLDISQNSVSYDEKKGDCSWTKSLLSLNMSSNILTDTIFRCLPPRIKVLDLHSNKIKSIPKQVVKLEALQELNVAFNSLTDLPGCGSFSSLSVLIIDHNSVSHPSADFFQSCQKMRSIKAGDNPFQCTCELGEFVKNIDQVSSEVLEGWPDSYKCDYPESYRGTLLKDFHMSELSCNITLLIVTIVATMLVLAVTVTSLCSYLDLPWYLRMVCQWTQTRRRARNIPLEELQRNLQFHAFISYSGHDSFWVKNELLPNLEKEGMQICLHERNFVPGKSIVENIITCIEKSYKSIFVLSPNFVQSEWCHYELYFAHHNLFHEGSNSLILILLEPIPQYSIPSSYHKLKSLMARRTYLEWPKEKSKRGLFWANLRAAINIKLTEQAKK

Toll-like receptor 2 = Toll-like receptor 2 (Homo sapiens, UniProt O60603); test: Antagonist activity at TLR2 in human PBMC assessed as inhibition of Pam3CSK4-induced TNFalpha production preincubated for 30 mins followed by Pam3CSK4 addition and measured after 20 hrs by HTRF assay; assay type: cell-based
Toll-like receptor 5 = Toll-like receptor 5 (Homo sapiens, UniProt O60602); test: Antagonist activity at TLR5 in human PBMC assessed as inhibition of flagellin-induced TNFalpha production preincubated for 30 mins followed by flagellin addition and measured after 20 hrs by HTRF assay; assay type: cell-based
Toll-like receptor 5, sequence (O60602 whole entry): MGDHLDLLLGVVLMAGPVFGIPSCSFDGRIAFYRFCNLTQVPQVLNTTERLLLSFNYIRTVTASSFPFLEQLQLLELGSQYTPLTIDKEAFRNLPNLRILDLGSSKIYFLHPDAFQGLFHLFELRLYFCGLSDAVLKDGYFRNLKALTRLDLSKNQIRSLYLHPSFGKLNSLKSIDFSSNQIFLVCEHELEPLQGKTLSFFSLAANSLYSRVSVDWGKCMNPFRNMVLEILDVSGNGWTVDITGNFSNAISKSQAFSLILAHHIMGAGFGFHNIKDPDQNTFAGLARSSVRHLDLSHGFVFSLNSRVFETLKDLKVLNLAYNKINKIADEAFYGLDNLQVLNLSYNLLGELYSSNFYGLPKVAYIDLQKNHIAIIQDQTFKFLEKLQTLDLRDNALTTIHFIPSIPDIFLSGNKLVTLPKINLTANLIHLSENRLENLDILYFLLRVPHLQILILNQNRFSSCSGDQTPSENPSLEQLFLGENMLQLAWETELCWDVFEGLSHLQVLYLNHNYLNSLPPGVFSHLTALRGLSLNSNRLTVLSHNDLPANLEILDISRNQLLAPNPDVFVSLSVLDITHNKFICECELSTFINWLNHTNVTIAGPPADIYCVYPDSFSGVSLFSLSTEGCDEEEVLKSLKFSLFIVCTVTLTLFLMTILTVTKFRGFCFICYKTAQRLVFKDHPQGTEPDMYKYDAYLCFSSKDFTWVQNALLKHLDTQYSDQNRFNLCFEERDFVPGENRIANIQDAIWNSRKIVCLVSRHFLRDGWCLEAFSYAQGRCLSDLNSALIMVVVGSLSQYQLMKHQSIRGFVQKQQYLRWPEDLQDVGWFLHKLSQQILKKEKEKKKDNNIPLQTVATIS

Toll-like receptor 2, sequence (O60603 whole entry): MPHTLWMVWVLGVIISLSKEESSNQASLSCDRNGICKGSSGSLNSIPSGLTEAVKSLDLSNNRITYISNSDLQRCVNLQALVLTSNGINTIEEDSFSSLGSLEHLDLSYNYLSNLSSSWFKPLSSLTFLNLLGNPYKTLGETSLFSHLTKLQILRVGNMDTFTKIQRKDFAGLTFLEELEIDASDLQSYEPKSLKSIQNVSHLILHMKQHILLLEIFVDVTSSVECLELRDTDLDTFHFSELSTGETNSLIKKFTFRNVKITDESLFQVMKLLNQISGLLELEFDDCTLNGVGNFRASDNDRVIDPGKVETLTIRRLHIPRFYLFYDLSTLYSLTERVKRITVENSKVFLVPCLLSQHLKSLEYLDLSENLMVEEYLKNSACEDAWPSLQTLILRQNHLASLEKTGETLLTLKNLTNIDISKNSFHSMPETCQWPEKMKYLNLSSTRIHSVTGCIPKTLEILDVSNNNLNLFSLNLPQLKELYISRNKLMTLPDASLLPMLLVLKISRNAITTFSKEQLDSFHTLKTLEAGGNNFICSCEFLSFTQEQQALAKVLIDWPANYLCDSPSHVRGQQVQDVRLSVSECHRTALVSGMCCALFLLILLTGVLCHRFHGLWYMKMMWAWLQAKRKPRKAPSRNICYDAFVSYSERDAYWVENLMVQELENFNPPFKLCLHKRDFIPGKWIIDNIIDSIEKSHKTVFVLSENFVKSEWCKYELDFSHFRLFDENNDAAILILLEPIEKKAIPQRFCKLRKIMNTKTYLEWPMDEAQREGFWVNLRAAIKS
Toll-like receptor 4, sequence (O00206 whole entry): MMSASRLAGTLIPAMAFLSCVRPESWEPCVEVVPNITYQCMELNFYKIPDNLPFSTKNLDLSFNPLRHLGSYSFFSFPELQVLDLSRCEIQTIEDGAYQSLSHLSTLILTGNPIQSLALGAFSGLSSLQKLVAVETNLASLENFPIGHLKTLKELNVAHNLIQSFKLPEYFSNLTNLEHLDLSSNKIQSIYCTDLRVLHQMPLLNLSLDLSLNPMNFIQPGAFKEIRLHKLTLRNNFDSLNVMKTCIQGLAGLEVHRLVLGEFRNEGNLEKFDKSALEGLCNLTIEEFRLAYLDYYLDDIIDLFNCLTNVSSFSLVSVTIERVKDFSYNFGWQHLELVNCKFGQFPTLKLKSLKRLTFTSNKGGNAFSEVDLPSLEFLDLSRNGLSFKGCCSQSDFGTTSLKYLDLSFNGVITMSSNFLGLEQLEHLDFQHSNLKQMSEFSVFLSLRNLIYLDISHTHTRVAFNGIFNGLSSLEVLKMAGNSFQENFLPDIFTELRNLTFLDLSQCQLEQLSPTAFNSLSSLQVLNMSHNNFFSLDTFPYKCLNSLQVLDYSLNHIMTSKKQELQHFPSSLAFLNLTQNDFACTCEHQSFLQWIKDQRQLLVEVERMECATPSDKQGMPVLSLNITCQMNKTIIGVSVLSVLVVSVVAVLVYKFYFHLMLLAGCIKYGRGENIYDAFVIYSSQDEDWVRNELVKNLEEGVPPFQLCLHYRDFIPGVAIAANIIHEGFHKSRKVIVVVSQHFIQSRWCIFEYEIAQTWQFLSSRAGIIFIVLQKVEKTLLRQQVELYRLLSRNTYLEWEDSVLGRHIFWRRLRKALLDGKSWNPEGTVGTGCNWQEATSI

IC50 (Toll-like receptor 4): > 6.5 µM
IC50 (Toll-like receptor 7): 0.18 µM
IC50 (Toll-like receptor 1): > 6.5 µM
IC50 (Toll-like receptor 2): > 6.5 µM
IC50 (Toll-like receptor 5): > 6.5 µM
Structure (SMILES): O=c1ccc(-c2cc(C(F)(F)F)c3nn([C@H]4CCNC[C@@H]4F)cc3c2)c2n1CCC2
